According to patent publication US9802941B2, “Compounds and methods for inhibiting histone demethylases” (Gilead Sciences, Inc., priority 2014, dated 2017):
Where two headings read alike, the source gives them in different places.

Experiments:
Assay type in all cases: biochemical
PHF8 (KDM7) = target: T1, PHF8 (KDM7) (Homo sapiens, UniProt Q9UPP1); assay: Histone lysine demethylase AlphaLISA assay, PHF8
T1 construct: KDM7 (PHF8); BRIC; 1-1322; Bac
Method in brief: (§1)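 Buffer: 50 mM Hepes pH 7.4-8.0, Tween-20, 0.1% BSA, 5 μM ammonium iron(II) sulfate. Enzyme + compound (DMSO) 10 min, then substrate at RT; acceptor and streptavidin donor beads added, dark incubation, AlphaLISA read.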

KDM4C (JMJD2C) = target: T2, KDM4C (JMJD2C) (Homo sapiens, UniProt Q9H3R0); assay: Histone lysine demethylase AlphaLISA assay, KDM4C
T2 construct: KDM4C; BRIC, Denmark; 1-349; E. coli; host or cells: E. coli
T2 sequence (Q9H3R0 1-349): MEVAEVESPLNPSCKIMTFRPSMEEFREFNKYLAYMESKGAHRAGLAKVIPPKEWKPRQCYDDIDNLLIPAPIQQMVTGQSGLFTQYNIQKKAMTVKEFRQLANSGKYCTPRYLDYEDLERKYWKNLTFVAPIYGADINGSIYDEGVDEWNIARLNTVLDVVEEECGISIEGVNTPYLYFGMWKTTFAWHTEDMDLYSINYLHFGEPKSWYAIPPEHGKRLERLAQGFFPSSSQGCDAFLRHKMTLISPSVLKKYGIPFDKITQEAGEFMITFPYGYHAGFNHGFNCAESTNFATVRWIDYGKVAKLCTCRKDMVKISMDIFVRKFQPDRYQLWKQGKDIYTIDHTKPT
Method in brief: as §1

KDM2B (FBXL10) = target: T3, KDM2B (FBXL10) (Homo sapiens, UniProt Q8NHM5); assay: Histone lysine demethylase AlphaLISA assay, KDM2B
T3 construct: KDM2B; BPS,; 1-650; Bac; purchased BPS Bioscience, US; host or cells: baculovirus system
T3 sequence (Q8NHM5 1-650): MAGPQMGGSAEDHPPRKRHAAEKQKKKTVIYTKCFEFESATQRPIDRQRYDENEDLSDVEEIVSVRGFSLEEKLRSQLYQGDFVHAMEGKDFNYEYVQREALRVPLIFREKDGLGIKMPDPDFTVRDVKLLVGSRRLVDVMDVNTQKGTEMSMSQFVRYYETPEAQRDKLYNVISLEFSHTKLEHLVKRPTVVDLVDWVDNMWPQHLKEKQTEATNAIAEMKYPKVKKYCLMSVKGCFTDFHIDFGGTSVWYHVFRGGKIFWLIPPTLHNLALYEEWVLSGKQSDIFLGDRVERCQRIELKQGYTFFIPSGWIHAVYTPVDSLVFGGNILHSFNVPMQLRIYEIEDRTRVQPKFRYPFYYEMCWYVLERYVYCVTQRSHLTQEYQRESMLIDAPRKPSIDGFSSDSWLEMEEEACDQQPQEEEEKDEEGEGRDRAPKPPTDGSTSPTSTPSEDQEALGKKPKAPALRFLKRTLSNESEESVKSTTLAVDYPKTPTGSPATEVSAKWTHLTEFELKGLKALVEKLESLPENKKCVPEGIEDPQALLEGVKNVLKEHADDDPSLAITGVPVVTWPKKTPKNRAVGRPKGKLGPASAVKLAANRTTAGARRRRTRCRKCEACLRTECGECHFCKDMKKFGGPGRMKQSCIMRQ
Method in brief: as §1

KDM5B (PLU-1) = target: T4, KDM5B (PLU-1) (Homo sapiens, UniProt Q9UGL1); assay: Histone lysine demethylase AlphaLISA assay, KDM5B
T4 construct: BRIC; 1-809; E. coli; host or cells: E. coli
T4 sequence (Q9UGL1 1-809): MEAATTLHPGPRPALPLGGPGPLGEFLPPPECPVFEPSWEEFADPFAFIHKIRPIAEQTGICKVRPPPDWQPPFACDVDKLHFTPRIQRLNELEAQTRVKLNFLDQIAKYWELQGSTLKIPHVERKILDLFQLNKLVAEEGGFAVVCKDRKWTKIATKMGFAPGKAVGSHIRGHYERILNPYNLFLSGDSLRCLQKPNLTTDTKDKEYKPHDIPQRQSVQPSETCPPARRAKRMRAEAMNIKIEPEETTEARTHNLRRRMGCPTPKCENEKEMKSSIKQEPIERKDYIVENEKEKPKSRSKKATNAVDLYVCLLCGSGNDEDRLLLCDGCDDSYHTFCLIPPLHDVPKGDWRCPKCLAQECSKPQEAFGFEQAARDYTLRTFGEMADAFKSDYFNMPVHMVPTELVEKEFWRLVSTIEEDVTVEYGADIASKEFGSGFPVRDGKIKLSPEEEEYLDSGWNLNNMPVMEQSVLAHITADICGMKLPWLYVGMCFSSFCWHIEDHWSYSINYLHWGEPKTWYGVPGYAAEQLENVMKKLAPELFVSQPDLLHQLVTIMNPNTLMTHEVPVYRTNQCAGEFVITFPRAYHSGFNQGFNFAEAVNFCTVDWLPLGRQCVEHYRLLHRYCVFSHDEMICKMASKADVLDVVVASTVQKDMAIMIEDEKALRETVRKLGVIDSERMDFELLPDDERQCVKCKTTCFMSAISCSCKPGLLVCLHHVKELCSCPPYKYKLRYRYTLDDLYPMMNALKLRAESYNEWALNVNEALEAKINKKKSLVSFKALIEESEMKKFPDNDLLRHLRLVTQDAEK
Method in brief: as §1

[1] = AlphaLISA, in vitro, read-out: HDME Inhibition PHF8
[2] = AlphaLISA assay, read-out: HDME Inhibition KDM4C (IC50)
[3] = AlphaLISA, in vitro, read-out: HDME Inhibition KDM4C
[4] = AlphaLISA, in vitro, read-out: HDME Inhibition KDM2B
[5] = AlphaLISA assay, read-out: HDME Inhibition KDM5B (IC50)
[6] = AlphaLISA, in vitro, read-out: HDME Inhibition KDM5B
[7] = AlphaLISA assay, read-out: HDME Inhibition PHF8 (IC50)
[8] = AlphaLISA assay, read-out: HDME Inhibition KDM2B (IC50)

T1 sequence (Q9UPP1 37-440 limits assumed): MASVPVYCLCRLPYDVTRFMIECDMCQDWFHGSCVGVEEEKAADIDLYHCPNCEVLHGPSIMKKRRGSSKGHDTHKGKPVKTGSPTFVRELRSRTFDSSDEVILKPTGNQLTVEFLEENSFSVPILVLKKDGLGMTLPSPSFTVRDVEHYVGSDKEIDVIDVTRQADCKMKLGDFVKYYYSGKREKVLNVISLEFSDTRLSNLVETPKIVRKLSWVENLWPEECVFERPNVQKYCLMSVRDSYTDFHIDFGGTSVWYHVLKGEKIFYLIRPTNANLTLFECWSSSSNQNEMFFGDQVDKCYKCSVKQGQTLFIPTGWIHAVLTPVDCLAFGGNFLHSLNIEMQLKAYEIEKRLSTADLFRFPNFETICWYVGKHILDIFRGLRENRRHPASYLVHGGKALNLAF

Row | SMILES | IC50 (PHF8 (KDM7); [1]) | IC50 (KDM4C (JMJD2C); [2]) | IC50 (KDM4C (JMJD2C); [3]) | IC50 (KDM2B (FBXL10); [4]) | IC50 (KDM5B (PLU-1); [5]) | IC50 (KDM5B (PLU-1); [6]) | IC50 (PHF8 (KDM7); [7]) | IC50 (KDM2B (FBXL10); [8]) | IC50 (KDM5B (PLU-1))
1 | Cc1cc(C(=O)O)cc(CNCc2nnc(CN(C)C)n2Cc2ccc(F)cc2)n1 [Compound 44, 2-{[({5-[(dimethylamino)methyl]-4-[(4-fluorophenyl)methyl]-4H-1,2,4-triazol-3-yl}methyl)amino]methyl}-6-methylpyridine-4-carboxylic acid] | 2.38 µM | > 10 µM | > 10 µM | 2.01 µM | > 10 µM | > 10 µM |  |  | 
2 | COc1ccc(CC(C)C)c(CNCc2cc(C(=O)O)cc(CO)n2)n1 [Compound 84, 2-(hydroxymethyl)-6-[({[6-methoxy-3-(2-methylpropyl)pyridin-2-yl]methyl}amino)methyl]pyridine-4-carboxylic acid] | 0.673 µM | > 10 µM | > 10 µM | 0.251 µM |  | 6.2 µM |  |  | 
3 | CC#CCC(c1ccc(F)cc1)n1ccnc1CNCc1cc(C(=O)O)cc(C)n1 (centres unmarked) [Compound 96, 2-{[({1-[1-(4-fluorophenyl)pent-3-yn-1-yl]-1H-imidazol-2-yl}methyl)amino]methyl}-6-methylpyridine-4-carboxylic acid] | 1.81 µM | > 10 µM | > 10 µM | 0.061 µM | > 10 µM | > 10 µM |  |  | 
4 | O=C(O)c1cc(CO)nc(CNCc2nnc(Cc3cccs3)n2Cc2ccc(F)cc2)c1 [Compound 71, 2-{[({4-[(4-Fluorophenyl)methyl]-5-(thiophen-2-ylmethyl)-4H-1,2,4-triazol-3-yl}methyl)amino]methyl}-6-(hydroxymethyl)pyridine-4-carboxylic acid] | 1.78 µM | > 10 µM | > 10 µM | 0.138 µM | > 10 µM | > 10 µM |  |  | 
5 | O=C(O)c1cc(CO)nc(CNCc2nnc(-c3cccs3)n2CCCc2ccccc2)c1 [Compound 95, 2-(hydroxymethyl)-6-[({[4-(3-phenylpropyl)-5-(thiophen-2-yl)-4H-1,2,4-triazol-3-yl]methyl}amino}methyl]pyridine-4-carboxylic acid] | 9.65 µM | > 10 µM | > 10 µM | 0.389 µM | > 10 µM | > 10 µM |  |  | 
6 | COc1ccc(OCCc2ccccc2)c(CCNCc2cc(C(=O)O)cc(CO)n2)n1 [Compound 107, 2-(hydroxymethyl)-6-[({2-[6-methoxy-3-(2-phenylethoxy)pyridin-2-yl]ethyl}amino)methyl]pyridine-4-carboxylic acid] | > 10 µM | > 10 µM | > 10 µM | 5.18 µM | > 10 µM | > 10 µM | > 10 µM |  | 
7 | O=C(O)c1cc(CO)nc(CNCc2nnc(-c3ccccc3)n2CCCc2ccccc2)c1 [Compound 99, 2-(hydroxymethyl)-6-[({[5-phenyl-4-(3-phenylpropyl)-4H-1,2,4-triazol-3-yl]methyl}amino)methyl]pyridine-4-carboxylic acid] | > 10 µM | > 10 µM | > 10 µM | > 10 µM |  |  | > 10 µM | > 10 µM | 8.41 µM

The next lines start with the values.

Row | IC50 (PHF8 (KDM7); [1]) | IC50 (KDM4C (JMJD2C); [2]) | IC50 (KDM4C (JMJD2C); [3]) | IC50 (KDM2B (FBXL10); [4]) | IC50 (KDM5B (PLU-1); [5]) | IC50 (KDM5B (PLU-1); [6]) | IC50 (PHF8 (KDM7); [7]) | IC50 (KDM2B (FBXL10); [8]) | IC50 (KDM5B (PLU-1)) | SMILES
8 | > 10 µM | > 10 µM | > 10 µM | > 10 µM | > 10 µM | > 10 µM | > 10 µM | > 10 µM |  | CCc1nnc(CNCc2cc(C(=O)O)cc(C)n2)n1Cc1cccc(C(C)O)c1 (centres unmarked) [Compound 86, 2-({[(5-ethyl-4-{[3-(1-hydroxyethyl)phenyl]methyl}-4H-1,2,4-triazol-3-yl)methyl]amino}methyl)-6-methylpyridine-4-carboxylic acid]
9 | > 10 µM |  | 7.05 µM | 0.24 µM |  | 0.02 µM | > 10 µM |  |  | CCN(CCN(C)C)C(=O)CNCc1cc(C(=O)O)cc(CO)n1 [Compound 102, 2-{[({[2-(dimethylamino)ethyl](ethyl)carbamoyl}methyl)amino]methyl}-6-(hydroxymethyl)pyridine-4-carboxylic acid]
10 | 1.14 µM | > 10 µM | > 10 µM | 0.317 µM | > 10 µM | > 10 µM |  |  |  | Cc1cc(C(=O)O)cc(CNCc2ncc(CCC(N)=O)n2Cc2ccc(F)cc2)n1 [Compound 114, 2-[({[5-(2-carbamoylethyl)-1-[(4-fluorophenyl)methyl]-1H-imidazol-2-yl]methyl}amino)methyl]-6-methylpyridine-4-carboxylic acid]
11 | 1.11 µM | > 10 µM | > 10 µM | 0.838 µM | > 10 µM | > 10 µM |  |  |  | Cc1cc(C(=O)O)cc(CNCc2nnc(C(C)(C)C)n2Cc2ccc(F)cc2)n1 [Compound 49, 2-{[({5-tert-butyl-4-[(4-fluorophenyl)methyl]-4H-1,2,4-triazol-3-yl}methyl)amino]methyl}-6-methylpyridine-4-carboxylic acid]
12 | 1.27 µM | > 10 µM | > 10 µM | 1.14 µM | > 10 µM | > 10 µM |  |  |  | Cc1cc(C(=O)O)cc(CNCc2nnc(C)n2Cc2ccc(Cl)c(Cl)c2)n1 [Compound 57, 2-{[({4-[(3,4-dichlorophenyl)methyl]-5-methyl-4H-1,2,4-triazol-3-yl}methyl)amino]methyl}-6-methylpyridine-4-carboxylic acid]
13 | 4.95 µM | > 10 µM | > 10 µM | 1.53 µM |  |  |  |  | 0.755 µM | Cc1nc(CNCc2cc(C(=O)O)cc(CO)n2)n(Cc2ccc(F)cc2)c1C [Compound 83, 2-{[({1-[(4-fluorophenyl)methyl]-4,5-dimethyl-1H-imidazol-2-yl}methyl)amino]methyl}-6-(hydroxymethyl)pyridine-4-carboxylic acid]
14 | > 10 µM | > 10 µM | > 10 µM | 0.308 µM | > 10 µM | > 10 µM | > 10 µM |  |  | CC(C)Cc1ccc(OCc2ccccc2)nc1CNCc1cc(C(=O)O)cc(CO)n1 [Compound 97, 2-[({[6-(benzyloxy)-3-(2-methylpropyl)pyridin-2-yl]methyl}amino)methyl]-6-(hydroxymethyl)pyridine-4-carboxylic acid]
